Entries after “also recorded” stand apart in the source; their conditions may differ. Blank lines part the entries; values can stand above or below the compound they belong to.
Key:
[1] = molecular target: T1, recombinant human IDE (Homo sapiens, UniProt P14735); assay: IDE activity assay, degradation of fluorogenic peptide substrate FRET1; type: biochemical; conditions: for activity against IDE in words: FRET1 assay; for Ki: n = 3
[2] = tested on: neprilysin (NEP), endothelin-converting enzyme-1 (ECE1), ACE, and MMP-2 and -7; assay: Zinc-metalloprotease selectivity panel versus IDE, common substrate OmniMMP; type: biochemical
[3] = molecular target: T1, recombinant human IDE; conditions: cited from earlier work
[4] = molecular target: T1, recombinant human IDE; conditions: cited from earlier work; remark: listed apart in the source
[5] = molecular target: T1, recombinant human IDE; conditions: cited from earlier work; remark: listed apart in the source
[6] = molecular target: T1, recombinant human IDE; assay: IDE activity assay, insulin degradation; type: biochemical
[7] = molecular target: T1, recombinant human IDE; assay: IDE activity assay, Aß degradation; type: biochemical
[8] = molecular target: T2, MMP7 (Homo sapiens, UniProt P09237); assay: Zinc-metalloprotease selectivity dose-response, common substrate OmniMMP: MMP7; type: biochemical; conditions: Figure 3 dose-response curves
T2 sequence (P09237 95-267): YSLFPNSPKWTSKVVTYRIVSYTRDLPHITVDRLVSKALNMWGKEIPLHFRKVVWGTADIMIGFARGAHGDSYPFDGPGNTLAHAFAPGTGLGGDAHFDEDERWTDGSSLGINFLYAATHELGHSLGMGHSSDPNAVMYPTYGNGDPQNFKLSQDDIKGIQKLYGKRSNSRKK

T1 sequence (P14735 whole entry): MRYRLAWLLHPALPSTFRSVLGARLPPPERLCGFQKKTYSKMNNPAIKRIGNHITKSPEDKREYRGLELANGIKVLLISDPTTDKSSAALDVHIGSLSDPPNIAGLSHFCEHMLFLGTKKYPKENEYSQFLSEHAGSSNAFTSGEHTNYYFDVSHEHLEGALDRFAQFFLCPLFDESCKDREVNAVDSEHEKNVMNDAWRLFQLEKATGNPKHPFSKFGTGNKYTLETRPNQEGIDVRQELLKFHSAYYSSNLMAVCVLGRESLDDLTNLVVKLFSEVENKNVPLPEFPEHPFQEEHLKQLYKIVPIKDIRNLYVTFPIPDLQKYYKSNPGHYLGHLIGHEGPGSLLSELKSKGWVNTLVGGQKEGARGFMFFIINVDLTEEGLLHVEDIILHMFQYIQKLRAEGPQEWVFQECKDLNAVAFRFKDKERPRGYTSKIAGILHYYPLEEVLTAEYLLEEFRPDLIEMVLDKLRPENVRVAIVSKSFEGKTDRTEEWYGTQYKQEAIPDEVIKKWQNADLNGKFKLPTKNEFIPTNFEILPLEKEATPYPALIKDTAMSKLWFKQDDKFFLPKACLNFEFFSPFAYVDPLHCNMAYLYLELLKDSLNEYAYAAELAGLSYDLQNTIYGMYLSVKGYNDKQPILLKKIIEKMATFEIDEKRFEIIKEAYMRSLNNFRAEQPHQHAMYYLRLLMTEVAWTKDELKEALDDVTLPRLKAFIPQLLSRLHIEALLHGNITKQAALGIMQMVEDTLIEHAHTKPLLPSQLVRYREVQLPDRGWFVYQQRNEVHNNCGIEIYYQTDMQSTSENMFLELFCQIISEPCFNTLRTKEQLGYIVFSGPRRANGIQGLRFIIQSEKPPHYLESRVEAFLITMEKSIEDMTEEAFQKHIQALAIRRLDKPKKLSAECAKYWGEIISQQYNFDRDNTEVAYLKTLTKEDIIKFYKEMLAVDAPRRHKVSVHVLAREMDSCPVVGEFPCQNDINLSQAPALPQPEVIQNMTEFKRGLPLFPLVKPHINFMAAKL

Compound: (2R,3S)-N^1-((S)-1-Amino-5-guanidino-1-oxopentan-2-yl)-N^4,3-dihydroxy-2-(naphthalen-2-ylmethyl)succinamide [inhibitor 12a]
- activity against IDE in words [1]: abolish activity; also recorded: substantial decreases in potency

- fold more potent than the parent amide, 9a ([1]; ki, FRET1): ~ 13 fold
- fold more potent against IDE vis-à-vis the other proteases tested ([2]; OmniMMP substrate): > 100 fold
Compound: C=CCOC(=O)[C@H](CCCNC(=N)N)NC(=O)C(CC(=O)NO)Cc1ccc2ccccc2c1 (stereo in doubt) [inhibitor 14a, (S)-Allyl5-guanidino-2-((S)-4-(hydroxyamino)-2-(naphthalen-2-ylmethyl)-4-oxobutanamido)pentanoate]

Compound: (2S,3R)-N^1-((S)-1-amino-5-guanidino-1-oxopentan-2-yl)-N^4,3-dihydroxy-2-(naphthalen-2-ylmethyl)succinamide [inhibitor 12b]
- activity against IDE in words [1]: abolish activity; also recorded: substantial decreases in potency

Compound: Nc1ncnc2c1ncn2[C@@H]1O[C@H](COP(=O)(O)OP(=O)(O)OP(=O)(O)O)[C@@H](O)[C@H]1O [ATP]
- effect on degradation of Aß by IDE [3]: inhibits
- effect on degradation of FRET1 by IDE [4]: profoundly activates
- effect on degradation of insulin by IDE [5]: inhibits

- activity against IDE in words [1]: inactive
Compound: N=C(N)NCCC[C@H](NC(=O)C(CC(=O)NO)Cc1ccc2ccccc2c1)C(N)=O (stereo in doubt) [inhibitor 9b, (R)-N^1-((S)-1-amino-5-guanidino-1-oxopentan-2-yl)-N^4-hydroxy-2-(naphthalen-2-ylmethyl)succinamide]

Compound: N=C(N)NCCC[C@@H](NC(=O)[C@@H](Cc1c[nH]c2ccccc12)NC(=O)[C@H](N)CCC(=O)O)C(=O)N[C@@H](CC(=O)NO)Cc1ccc2ccccc2c1 [inhibitor 15, Glu-Trp-Arg-2Nap-Hx]
- fold higher ki^app for insulin degradation relative to FRET1 ([6]; derived from Table 5): > 60 fold

Compound: (S)-5-Amino-4-((S)-2-((S)-5-guanidino-2-((2S,3R)-3-hydroxy-4-(hydroxyamino)-2-(naphthalen-2-ylmethyl)-4-oxobutanamido)pentanamido)-3-(1H-indol-2-yl)propanamido)-5-oxopentanoic acid [inhibitor 8b]
- Ki ([1]; read-out: ki (nM) (FRET1), Table 1, FRET1 5 μM, 22 °C): 103 ± 6.9 nM
- Ki ([1]; read-out: ki, nM (FRET1), Table 2, truncation, FRET1 5 μM): 103 ± 7 nM
- Ki ([1]; read-out: ki^app, nM FRET1, Table 5, substrate FRET1 5 μM): 103 ± 7 nM
- Ki ([7]; read-out: ki^app, nM FAßB, Table 5, substrate Aß 200 nM, n = 3): 927 ± 120 nM
- Ki ([6]; read-out: ki^app, nM Insulin, Table 5, substrate insulin 2 nM, n = 3): 1890 ± 410 nM
- inhibition of the other proteases tested, in words ([2]; concentrations up to 10 μM): no or only partial inhibition

Compound: N=C(N)NCCC[C@H](NC(=O)[C@@H](CC(=O)NO)Cc1ccc2ccccc2c1)C(=O)N[C@@H](Cc1c[nH]c2ccccc12)C(=O)N[C@@H](CCC(=O)O)C(N)=O [inhibitor 1a]
- MMP7 inhibition in words [8]: rather potently inhibited

Compound: CC(=O)N[C@H](CCC(=O)NCCNc1cccc2c(S(=O)(=O)O)cccc12)C(=O)N[C@H](Cc1ccc(O)cc1)C(=O)N[C@H](Cc1ccc(C(=O)c2ccccc2)cc1)C(=O)N[C@@H](CC(=O)NO)Cc1ccc2ccccc2c1 [inhibitor 17, Ac-Glu(EDANS)-Tyr-Bpa-2Nap-Hx]
- fold lower ki^app for Aß degradation relative to insulin degradation ([7]; derived from Table 5): ~ 300 fold
- fold lower ki^app for Aß degradation relative to ki for FRET1 degradation ([7]; derived from Table 5): > 30 fold

Reference: paper PMC10165945 (Journal of medicinal chemistry, 2013)
